What was measured:
hERG channel = target: T1, hERG channel (Homo sapiens, UniProt Q12809); test: hERG fluorescence polarization assay (potential of inducing QT interval prolongation); format: binding
T1 construct: purchased Invitrogen
Description: The potential of the compound disclosed herein inducing QT interval prolongation was evaluated by detecting if the compound would block the hERG channel. The specific test method is as follows:
Precisely weighed compound disclosed herein was dissolved in DMSO to formulate a solution at the highest concentration of 10.0 mM, and then the solution was diluted to a initial concentration of 120.0 μM with hERG FP Assay Buffer (Invitrogen); the hERG Tracer Red stock solution (Invitrogen) and the positive control E-4031 stock solution (Invitrogen) were respectively diluted to initial concentrations of 4.0 nM and 120.0 μM with hERG FP Assay Buffer (Invitrogen). […]
The above-mentioned solution of the compound disclosed herein and E-4031 at the initial concentration of 120 μM were respectively diluted with hERG FP Assay Buffer 5-fold in series to provide 8 concentration of 120.0 μM, 24.0 μM, 4.8 μM, 960.0 nM, 192.0 nM, 38.4 nM, 7.7 nM and 1.5 nM. […] After that, the 384-well plate was put into an oscillator (PHMP-4, Grant-sio), in 25° C., 250 rpm, to incubate for 4 hours, and the fluorescence polarization values were measured by multi-function microplate reader (PHERAStarFS, BMG LABTECH) and corrected with the minimum and maximum fluorescence polarization values of E-4031, and the IC50 of the compound disclosed herein was calculated by GraphPad software. […]

[1] = Pharmacokinetic evaluation after intravenous or gavage administration to dogs; format: in vivo, Beagle dogs; conditions: dogs; for AUC(0-inf): read-out: AUCINF; for AUC(0-t): read-out: AUClast; for Cmax: read-out: Cmax; for MRT inf: read-out: MRTINF; for half-life: read-out: T1/2 (converted)
Description: (§1) The compounds disclosed herein were administered in form of a saline solution containing 5% DMSO, 5% Kolliphor HS 15, 2% (2% HCl) and 88% Saline, or a solution containing 10% DMSO, 10% Kolliphor HS 15 and 80% physiological saline to the subject animals. For intravenous administration, the animals were administered with a dose of 1 mg/kg or 2 mg/kg, and vein blood samples (0.3 mL) were collected at the time points of 0.083, 0.25, 0.5, 1.0, 2.0, 4.0, 6.0, 8.0 and 24 h after drug administration; plasma samples were collected by centrifugation of the vein blood samples at 3000 rpm or 4000 rpm for 10 minutes, and stored at −20° C. or −70° C. For gavage administration, the animals were administered with a dose of 2.5 mg/kg or 5 mg/kg, and vein blood samples (0.3 mL) were collected at the time points of 0.25, 0.5, 1.0, 2.0, 4.0, 6.0, 8.0 and 24 h after drug administration; plasma samples were collected by centrifugation at 3000 rpm or 4000 rpm for 10 minutes, and stored at −20° C. or −70° C. The positive control is suvorexant.
(§2) The above plasma samples were analyzed by the LC-MS/MS system.

[2] = Pharmacokinetic evaluation after intravenous or gavage administration to rats; format: in vivo, SD rats; conditions: rats; for AUC(0-inf): read-out: AUCINF; for AUC(0-t): read-out: AUClast; for Cmax: read-out: Cmax; for MRT inf: read-out: MRTINF; for half-life: read-out: T1/2 (converted)
Description: as §1, §2

[3] = Stability in human liver microsome; format: in vitro ADME; conditions: microsomes, pH 4, human liver microsome 0.5 mg/mL, 1 μM, 37° C., NADPH
Description: A mixture of the compound of the invention and human liver microsome in 0.1 M potassium phosphate buffer (containing 1.0 mM EDTA, pH=4) was incubated at 37° C., the sample concentrations at different incubation times were measured, and then the half life of the compound was calculated by plotting “the relative amount of the compound” against “incubation time” by using software GraphPad Prism 5.01, and intrinsic clearance was calculated. The experiment system shown as table 5:
The sample was analyzed by LC/MS/MS (ESI […] source and waters xbridge C18 EB-A-1420 chromatographic column were adopted), the mobile phases were an aqueous solution with 2 mM ammonium formate and 0.1% formic acid (mobile phase A) and an methanol solution with 2 mM ammonium formate and 0.1% formic acid (mobile phase B), the flow rate was 0.4 mL/min; the column temperature was 40° C. The ratio of the sample peak area to the internal standard peak area was obtained through LC/MS/MS analysis, the content of the compound at 0 time point was as 100%, the relative content of the compound at each time point was calculated. The half life of the compound was calculated by plotting “the relative amount of the compound” against “incubation time”, and intrinsic clearance was calculated.
The positive control is suvorexant.

[4] = beagle, dog, in vivo, iv, 1 mg/kg
[5] = beagle, dog, in vivo, po, 5 mg/kg

T1 sequence (Q12809 whole entry): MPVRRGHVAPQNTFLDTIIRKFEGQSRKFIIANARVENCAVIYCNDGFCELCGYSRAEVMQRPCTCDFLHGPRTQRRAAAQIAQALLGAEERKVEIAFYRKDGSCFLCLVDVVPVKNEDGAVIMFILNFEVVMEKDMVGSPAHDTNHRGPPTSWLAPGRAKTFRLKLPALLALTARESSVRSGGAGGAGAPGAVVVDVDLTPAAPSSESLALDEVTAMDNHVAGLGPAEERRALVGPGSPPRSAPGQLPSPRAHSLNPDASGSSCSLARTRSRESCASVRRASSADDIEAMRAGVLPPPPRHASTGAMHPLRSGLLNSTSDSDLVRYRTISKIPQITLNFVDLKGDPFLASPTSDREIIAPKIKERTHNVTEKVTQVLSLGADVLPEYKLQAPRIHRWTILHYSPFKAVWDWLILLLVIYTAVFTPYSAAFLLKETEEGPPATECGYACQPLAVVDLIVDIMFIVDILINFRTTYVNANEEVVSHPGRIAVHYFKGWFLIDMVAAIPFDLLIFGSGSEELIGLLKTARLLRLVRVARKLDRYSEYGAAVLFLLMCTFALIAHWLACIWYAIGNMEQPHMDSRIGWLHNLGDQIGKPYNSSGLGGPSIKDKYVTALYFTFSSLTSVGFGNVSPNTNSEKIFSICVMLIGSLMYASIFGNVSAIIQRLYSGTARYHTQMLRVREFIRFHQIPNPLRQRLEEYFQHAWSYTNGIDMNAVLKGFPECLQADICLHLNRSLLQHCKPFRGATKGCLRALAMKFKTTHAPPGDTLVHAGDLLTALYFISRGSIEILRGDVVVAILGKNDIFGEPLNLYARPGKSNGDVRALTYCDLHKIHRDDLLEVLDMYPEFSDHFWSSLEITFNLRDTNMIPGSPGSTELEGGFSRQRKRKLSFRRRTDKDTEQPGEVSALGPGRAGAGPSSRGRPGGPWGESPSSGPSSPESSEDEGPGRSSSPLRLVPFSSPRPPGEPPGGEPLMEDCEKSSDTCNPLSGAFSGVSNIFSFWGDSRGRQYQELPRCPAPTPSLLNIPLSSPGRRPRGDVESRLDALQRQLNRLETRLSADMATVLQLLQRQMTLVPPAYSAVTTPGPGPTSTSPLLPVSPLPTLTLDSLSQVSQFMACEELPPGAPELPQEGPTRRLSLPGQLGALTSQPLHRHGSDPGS

Q: Which IC50 (hERG channel) does the source give for `Cc1ccc(-n2nccn2)c(C(=O)N2CCN(c3nc4cc(Cl)ccc4o3)CC[C@H]2C)c1` [suvorexant, reference compound] here?
A: 1790 nM

Q: What about the AUC(0-inf) [1, 4] of the same compound?
A: 5960 ng·h/mL

Q: And the AUC(0-t) [1, 4]?
A: 5750 ng·h/mL

Q: And the clearance ([1]; beagle, dog, in vivo, iv, 1 mg/kg, read-out: Cl)?
A: 2.82 mL/min/kg

Q: What about the Cmax [1, 4] of the same compound?
A: 2100 ng/mL

Q: What about the MRT inf [1, 4] of the same compound?
A: 5.39 h

Q: What about the half-life [1, 4] of the same compound?
A: 5.79 h

Q: And the Vd ([1]; beagle, dog, in vivo, iv, 1 mg/kg, read-out: Vss)?
A: 0.919 L/kg

Q: And the AUC(0-inf) [1, 5]?
A: 14300 ng·h/mL

Q: And the AUC(0-t) [1, 5]?
A: 13600 ng·h/mL

Q: What about the Cmax [1, 5] of the same compound?
A: 1640 ng/mL

Q: And the MRT inf [1, 5]?
A: 7.2 h

Q: What about the half-life [1, 5] of the same compound?
A: 5.71 h

Q: What about the F ([1]; po, 5 mg/kg) of the same compound?
A: 48%

Q: What about the AUC(0-inf) ([2]; SD, rat, in vivo, iv, 2 mg/kg) of the same compound?
A: 655 ng·h/mL

Q: What about the AUC(0-t) ([2]; SD, rat, in vivo, iv, 2 mg/kg) of the same compound?
A: 655 ng·h/mL

Q: And the clearance ([2]; SD, rat, in vivo, iv, 2 mg/kg, read-out: Cl)?
A: 51.2 mL/min/kg

Q: What about the Cmax ([2]; SD, rat, in vivo, iv, 2 mg/kg) of the same compound?
A: 784 ng/mL

Q: And the MRT inf ([2]; SD, rat, in vivo, iv, 2 mg/kg)?
A: 0.708 h

Q: What about the half-life ([2]; SD, rat, in vivo, iv, 2 mg/kg) of the same compound?
A: 0.569 h

Q: What about the Vd ([2]; SD, rat, in vivo, iv, 2 mg/kg, read-out: Vss) of the same compound?
A: 2.17 L/kg

Q: And the AUC(0-inf) ([2]; SD, rat, in vivo, po, 5 mg/kg)?
A: 530 ng·h/mL

Q: And the AUC(0-t) ([2]; SD, rat, in vivo, po, 5 mg/kg)?
A: 528 ng·h/mL

Q: What about the Cmax ([2]; SD, rat, in vivo, po, 5 mg/kg) of the same compound?
A: 249 ng/mL

Q: What about the MRT inf ([2]; SD, rat, in vivo, po, 5 mg/kg) of the same compound?
A: 1.95 h

Q: What about the half-life ([2]; SD, rat, in vivo, po, 5 mg/kg) of the same compound?
A: 0.99 h

Q: And the F ([2]; po, 5 mg/kg)?
A: 32.4%

Q: What about the half-life at 1 μM ([3]; read-out: Half life) of the same compound?
A: 9.85 min

Q: And the CLint scaled at 1 μM ([3]; read-out: intrinsic clearance)?
A: 176 mL/min/kg

Reference: patent US10370380B2, “Octahydropyrrolo[3,4-c]pyrrole derivatives and uses thereof” (Sunshine Lake Pharma Co., Ltd., priority 2015, dated 2019)
